Measured values taken from the supplement of paper PMC10307832.

Tests used:
Experiment in all cases: relative viability (nuclei count vs DMSO), 5 days (fraction); higher = more cells survive
NCI-H2347 = system: NCI-H2347
How it was run: (§1)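 Lung cancer cell lines in 1536-well plates got either a single drug or a fixed anchor-drug dose together with five library-drug doses (not always all listed) in √10 steps, by pin tool, on the day after seeding. Nuclei were counted after 5 days, and relative viability is the treated-to-vehicle ratio of nuclei counts. Values are medians of duplicate plates.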

NCI-H1437 = system: NCI-H1437
How it was run: as §1

NCI-H2228 = system: NCI-H2228
How it was run: as §1

NCI-H1755 = system: NCI-H1755
How it was run: as §1

H3255 = system: H3255
How it was run: as §1

LC-2-ad = system: LC-2-ad
How it was run: as §1

EMC-BAC-2 = system: EMC-BAC-2
How it was run: as §1

NCI-H1651 = system: NCI-H1651
How it was run: as §1

LK-2 = system: LK-2
How it was run: as §1

CAL-12T = system: CAL-12T
How it was run: as §1

NCI-H2342 = system: NCI-H2342
How it was run: as §1

SK-LU-1 = system: SK-LU-1
How it was run: as §1

NCI-H661 = system: NCI-H661
How it was run: as §1

NCI-H1915 = system: NCI-H1915
How it was run: as §1

COR-L 105 = system: COR-L 105
How it was run: as §1

NCI-H1793 = system: NCI-H1793
How it was run: as §1

PC-3 [JPC-3] = system: PC-3 [JPC-3]
How it was run: as §1

NCI-H1395 = system: NCI-H1395
How it was run: as §1

NCI-H522 = system: NCI-H522
How it was run: as §1

NCI-H1944 = system: NCI-H1944
How it was run: as §1

NCI-H2085 = system: NCI-H2085
How it was run: as §1

NCI-H2087 = system: NCI-H2087
How it was run: as §1

Work on COCC1(CO)C(=O)C2CCN1CC2 (stereo unspecified) [PRIMA-1MET] + Cc1cc(Nc2cc(N3CCN(C)CC3)nc(Sc3ccc(NC(=O)C4CC4)cc3)n2)n[nH]1 [Tozasertib] (partner 0.1 µM) yielded a relative viability (NCI-H2347; first compound 0.2 µM) of 0.566, a relative viability (NCI-H2347; first compound 0.6325 µM) of 0.531 and a relative viability (NCI-H2347; first compound 2 µM) of 0.237. For the same compound, the relative viability (NCI-H2347; first compound 6.325 µM) was 0.516, the relative viability (NCI-H2347; first compound 20 µM) was 0.433 and the relative viability (NCI-H1437; first compound 0.2 µM) was 0.41. For the same compound, the relative viability (NCI-H1437; first compound 0.6325 µM) was 0.408, the relative viability (NCI-H1437; first compound 2 µM) was 0.407 and the relative viability (NCI-H1437; first compound 6.325 µM) was 0.411. For the same compound, the relative viability (NCI-H1437; first compound 20 µM) was 0.407, the relative viability (NCI-H2228; first compound 0.2 µM) was 0.312 and the relative viability (NCI-H2228; first compound 0.6325 µM) was 0.262. It also gave a relative viability (NCI-H2228; first compound 2 µM) of 0.322, a relative viability (NCI-H2228; first compound 6.325 µM) of 0.203 and a relative viability (NCI-H2228; first compound 20 µM) of 0.0992. It also gave a relative viability (NCI-H1755; first compound 0.2 µM) of 0.699, a relative viability (NCI-H1755; first compound 0.6325 µM) of 0.596 and a relative viability (NCI-H1755; first compound 2 µM) of 0.509. It also gave a relative viability (NCI-H1755; first compound 6.325 µM) of 0.554, a relative viability (NCI-H1755; first compound 20 µM) of 0.455 and a relative viability (H3255; first compound 0.2 µM) of 0.807. For the same compound, the relative viability (H3255; first compound 0.6325 µM) was 0.765, the relative viability (H3255; first compound 2 µM) was 0.461 and the relative viability (H3255; first compound 6.325 µM) was 0.615. The relative viability (H3255; first compound 20 µM) was 0.505, the relative viability (LC-2-ad; first compound 0.2 µM) was 0.422 and the relative viability (LC-2-ad; first compound 2 µM) was 0.399. The relative viability (LC-2-ad; first compound 6.325 µM) was 0.429, the relative viability (LC-2-ad; first compound 20 µM) was 0.394 and the relative viability (EMC-BAC-2; first compound 0.2 µM) was 0.335. For the same compound, the relative viability (EMC-BAC-2; first compound 0.6325 µM) was 0.332, the relative viability (EMC-BAC-2; first compound 6.325 µM) was 0.277 and the relative viability (EMC-BAC-2; first compound 20 µM) was 0.191. The relative viability (NCI-H1651; first compound 0.2 µM) was 0.848, the relative viability (NCI-H1651; first compound 0.6325 µM) was 0.66 and the relative viability (NCI-H1651; first compound 2 µM) was 0.723. For the same compound, the relative viability (NCI-H1651; first compound 6.325 µM) was 0.712, the relative viability (NCI-H1651; first compound 20 µM) was 0.649 and the relative viability (LK-2; first compound 0.2 µM) was 0.189. For the same compound, the relative viability (LK-2; first compound 0.6325 µM) was 0.177, the relative viability (LK-2; first compound 2 µM) was 0.144 and the relative viability (LK-2; first compound 6.325 µM) was 0.161. The relative viability (LK-2; first compound 20 µM) was 0.132, the relative viability (CAL-12T; first compound 0.2 µM) was 0.339 and the relative viability (CAL-12T; first compound 0.6325 µM) was 0.275. The relative viability (CAL-12T; first compound 2 µM) was 0.282, the relative viability (CAL-12T; first compound 6.325 µM) was 0.326 and the relative viability (CAL-12T; first compound 20 µM) was 0.263. For the same compound, the relative viability (NCI-H2342; first compound 0.2 µM) was 0.58, the relative viability (NCI-H2342; first compound 0.6325 µM) was 0.684 and the relative viability (NCI-H2342; first compound 2 µM) was 0.408. The relative viability (NCI-H2342; first compound 6.325 µM) was 0.405, the relative viability (NCI-H2342; first compound 20 µM) was 0.349 and the relative viability (SK-LU-1; first compound 0.2 µM) was 0.4. For the same compound, the relative viability (SK-LU-1; first compound 0.6325 µM) was 0.371, the relative viability (SK-LU-1; first compound 2 µM) was 0.319 and the relative viability (SK-LU-1; first compound 6.325 µM) was 0.344. It also gave a relative viability (SK-LU-1; first compound 20 µM) of 0.24, a relative viability (NCI-H661; first compound 0.2 µM) of 0.369 and a relative viability (NCI-H661; first compound 0.6325 µM) of 0.354. It also gave a relative viability (NCI-H661; first compound 2 µM) of 0.357, a relative viability (NCI-H661; first compound 6.325 µM) of 0.343 and a relative viability (NCI-H661; first compound 20 µM) of 0.353. For the same compound, the relative viability (NCI-H1915; first compound 0.2 µM) was 0.444, the relative viability (NCI-H1915; first compound 0.6325 µM) was 0.368 and the relative viability (NCI-H1915; first compound 6.325 µM) was 0.389. The relative viability (NCI-H1915; first compound 20 µM) was 0.364, the relative viability (COR-L 105; first compound 0.2 µM) was 0.228 and the relative viability (COR-L 105; first compound 0.6325 µM) was 0.338. It also gave a relative viability (COR-L 105; first compound 2 µM) of 0.32, a relative viability (COR-L 105; first compound 6.325 µM) of 0.294 and a relative viability (COR-L 105; first compound 20 µM) of 0.167. For the same compound, the relative viability (NCI-H1793; first compound 0.2 µM) was 0.44, the relative viability (NCI-H1793; first compound 0.6325 µM) was 0.316 and the relative viability (NCI-H1793; first compound 6.325 µM) was 0.414. It also gave a relative viability (NCI-H1793; first compound 20 µM) of 0.237, a relative viability (PC-3 [JPC-3]; first compound 0.2 µM) of 0.996 and a relative viability (PC-3 [JPC-3]; first compound 0.6325 µM) of 0.856. It also gave a relative viability (PC-3 [JPC-3]; first compound 2 µM) of 0.857, a relative viability (PC-3 [JPC-3]; first compound 6.325 µM) of 0.89 and a relative viability (PC-3 [JPC-3]; first compound 20 µM) of 0.873. It also gave a relative viability (NCI-H1395; first compound 0.2 µM) of 0.823, a relative viability (NCI-H1395; first compound 0.6325 µM) of 0.556 and a relative viability (NCI-H1395; first compound 2 µM) of 0.768. For the same compound, the relative viability (NCI-H1395; first compound 6.325 µM) was 0.885, the relative viability (NCI-H1395; first compound 20 µM) was 0.518 and the relative viability (NCI-H522; first compound 0.2 µM) was 0.602. For the same compound, the relative viability (NCI-H522; first compound 0.6325 µM) was 0.455, the relative viability (NCI-H522; first compound 2 µM) was 0.46 and the relative viability (NCI-H522; first compound 6.325 µM) was 0.507. For the same compound, the relative viability (NCI-H522; first compound 20 µM) was 0.0873, the relative viability (NCI-H1944; first compound 0.2 µM) was 0.225 and the relative viability (NCI-H1944; first compound 0.6325 µM) was 0.242. For the same compound, the relative viability (NCI-H1944; first compound 2 µM) was 0.222, the relative viability (NCI-H1944; first compound 6.325 µM) was 0.243 and the relative viability (NCI-H1944; first compound 20 µM) was 0.23. It also gave a relative viability (NCI-H2085; first compound 0.2 µM) of 0.936, a relative viability (NCI-H2085; first compound 0.6325 µM) of 0.927 and a relative viability (NCI-H2085; first compound 2 µM) of 0.84. For the same compound, the relative viability (NCI-H2085; first compound 6.325 µM) was 0.828, the relative viability (NCI-H2085; first compound 20 µM) was 0.227 and the relative viability (NCI-H2087; first compound 0.2 µM) was 0.321. For the same compound, the relative viability (NCI-H2087; first compound 0.6325 µM) was 0.279, the relative viability (NCI-H2087; first compound 2 µM) was 0.267 and the relative viability (NCI-H2087; first compound 6.325 µM) was 0.271. The relative viability (NCI-H2087; first compound 20 µM) was 0.126.
